Legend:
[1] = system: peripheral blood mononuclear cells (PBMCs); experiment: IL-6 induction in fresh human PBMCs; format: cell-based; conditions: human IL-6; NR = no response
Description: Tumor necrosis factor alpha (TNFα) and IL-6 production in peripheral blood mononuclear cells (PBMCs) was measured after exposure to various concentrations of the DAT compounds synthesized as shown above. Initial studies focused on two different methods of delivery of the DAT compounds to PBMC cultures. In the first delivery method, the indicated derivative compound was dissolved in isopropanol, serially diluted, and then dried to the bottom of a tissue culture plate. In the second delivery method, the indicated derivative compound was dissolved in DMSO and serially diluted into tissue culture media. In each method, PBMCs were added to the compounds and incubated at 37° C. TNFα (FIG. 1A) and IL-6 (FIG. 1B) were measured after 18-24 hours after treatment by ELISA assay.
The isolated PBMCs were exposed to increasing concentrations of the indicated compounds resuspended in DMSO and serially diluted in media. IL-6 levels were determined from supernatants eighteen hours after treatment (FIG. 3).

RAW264.7 cells = experiment: Cytokine (TNFα) response of mouse macrophage cell line; Table 2 'Murine'; format: cell-based; parameters: Maximum cytokine response Murine: unit not given here; conditions: NR = no response
Description: Compounds were also tested in a mouse macrophage cell line (FIG. 4B). RAW264.7 cells were subjected to increasing concentrations of the compounds and assessed for production of the cytokine TNFα.

SMILES	Maximum cytokine response h-IL-6 [1] [OD]	Minimal Effective Concentration h-IL-6 [1] [µM]	Maximum cytokine response Murine (RAW264.7 cells)	Minimal Effective Concentration Murine (RAW264.7 cells) [µM]
CC(C)(C)c1cc(C(=O)NC[C@H]2O[C@H](O[C@H]3O[C@H](CNC(=O)c4cc(C(C)(C)C)cc(C(C)(C)C)c4)[C@@H](O)[C@H](O)[C@H]3O)[C@H](O)[C@@H](O)[C@@H]2O)cc(C(C)(C)C)c1 [UM1123]	2.7	33.3	0.13	3.3
COc1ccc(-c2ccc(C(=O)OC[C@H]3O[C@H](O[C@H]4O[C@H](COC(=O)c5ccc(-c6ccc(OC)cc6)cc5)[C@@H](O)[C@H](O)[C@H]4O)[C@H](O)[C@@H](O)[C@@H]3O)cc2)cc1 [UM1070]	3	33.3	2	100
CCCCCOc1cc(OCCCCC)cc(C(=O)NC[C@H]2O[C@H](O[C@H]3O[C@H](CNC(=O)c4cc(OCCCCC)cc(OCCCCC)c4)[C@@H](O)[C@H](O)[C@H]3O)[C@H](O)[C@@H](O)[C@@H]2O)c1 [UM1111]	2.5	33.3	0.13	3.3
CCCOc1cc(C(=O)OC[C@H]2O[C@H](O[C@H]3O[C@H](COC(=O)c4cc(OCCC)c(OCCC)c(OCCC)c4)[C@@H](O)[C@H](O)[C@H]3O)[C@H](O)[C@@H](O)[C@@H]2O)cc(OCCC)c1OCCC [UM1095]	3.3	3.7	0.001	3.4
CCOc1cc(C(=O)OC[C@H]2O[C@H](O[C@H]3O[C@H](CO)[C@@H](O)[C@H](O)[C@H]3O)[C@H](O)[C@@H](O)[C@@H]2O)cc(OCC)c1OCC [UM1120]	0.3	100	11	2.5
Cc1cc(C)cc(C(=O)OCC2OC(OC3OC(COC(=O)c4cc(C)cc(C)c4)C(O)C(O)C3O)C(O)C(O)C2O)c1 (stereo not drawn) [UM1016]	1.5	1000	3	4.1
Cc1ccccc1-c1cccc(C(=O)OC[C@H]2O[C@H](O[C@H]3O[C@H](COC(=O)c4cccc(-c5ccccc5C)c4)[C@@H](O)[C@H](O)[C@H]3O)[C@H](O)[C@@H](O)[C@@H]2O)c1 [UM1041]	1.3	5	1.2	33
CCOc1cc(C(=O)OCC2OC(OC3OC(COC(=O)c4cc(OCC)c(OCC)c(OCC)c4)C(O)C(O)C3O)C(O)C(O)C2O)cc(OCC)c1OCC (stereo not drawn) [UM1049]	3.3	2	1.3	0.13
CCCCCCCCCCOc1cc(OCCCCCCCCCC)cc(C(=O)OC[C@H]2O[C@H](O[C@H]3O[C@H](COC(=O)c4cc(OCCCCCCCCCC)cc(OCCCCCCCCCC)c4)[C@@H](O)[C@H](O)[C@H]3O)[C@H](O)[C@@H](O)[C@@H]2O)c1 [UM1094]	3.4	1.2	<.001	3.4
CC(C)(C)c1cc(C(=O)OC[C@H]2O[C@H](O[C@H]3O[C@H](COC(=O)c4cc(C(C)(C)C)c(O)c(C(C)(C)C)c4)[C@@H](O)[C@H](O)[C@H]3O)[C@H](O)[C@@H](O)[C@@H]2O)cc(C(C)(C)C)c1O [UM1087]	3	33.3	3	0.13
CCCCCCCCOc1cc(C(=O)OC[C@H]2O[C@H](O[C@H]3O[C@H](COC(=O)c4cc(OCCCCCCCC)c(OCCCCCCCC)c(OCCCCCCCC)c4)[C@@H](O)[C@H](O)[C@H]3O)[C@H](O)[C@@H](O)[C@@H]2O)cc(OCCCCCCCC)c1OCCCCCCCC [UM1098]	3.4	11	0.04	3.4
CCCCOc1cc(OCCCC)cc(C(=O)OC[C@H]2O[C@H](O[C@H]3O[C@H](COC(=O)c4cc(OCCCC)cc(OCCCC)c4)[C@@H](O)[C@H](O)[C@H]3O)[C@H](O)[C@@H](O)[C@@H]2O)c1 [UM1051]	2.5	6	1.3	0.13
Cc1cc(C(C)(C)C)cc(C)c1C(=O)OC[C@H]1O[C@H](O[C@H]2O[C@H](COC(=O)c3c(C)cc(C(C)(C)C)cc3C)[C@@H](O)[C@H](O)[C@H]2O)[C@H](O)[C@@H](O)[C@@H]1O [UM1116]	2.3	100	0.005	3
O=C(OC[C@H]1O[C@H](O[C@H]2O[C@H](COC(=O)c3ccccc3Nc3ccccc3)[C@@H](O)[C@H](O)[C@H]2O)[C@H](O)[C@@H](O)[C@@H]1O)c1ccccc1Nc1ccccc1 [UM1075]	3.5	20	2.2	3.7
CCCCCCOc1cc(C(=O)OC[C@H]2O[C@H](O[C@H]3O[C@H](COC(=O)c4cc(OCCCCCC)c(OCCCCCC)c(OCCCCCC)c4)[C@@H](O)[C@H](O)[C@H]3O)[C@H](O)[C@@H](O)[C@@H]2O)cc(OCCCCCC)c1OCCCCCC [UM1097]	3.3	3.7	0.005	3.4
Cc1cccc(Nc2ccccc2C(=O)OC[C@H]2O[C@H](O[C@H]3O[C@H](COC(=O)c4ccccc4Nc4cccc(C)c4C)[C@@H](O)[C@H](O)[C@H]3O)[C@H](O)[C@@H](O)[C@@H]2O)c1C [UM1074]	3.5	33.3	2	1.2
CCCCCCOc1cc(OCCCCCC)cc(C(=O)OC[C@H]2O[C@H](O[C@H]3O[C@H](COC(=O)c4cc(OCCCCCC)cc(OCCCCCC)c4)[C@@H](O)[C@H](O)[C@H]3O)[C@H](O)[C@@H](O)[C@@H]2O)c1 [UM1092]	3.3	3.7	<.001	3.4
COc1cccc(/C=C/C(=O)OC[C@H]2O[C@H](O[C@H]3O[C@H](COC(=O)/C=C/c4cccc(OC)c4OC)[C@@H](O)[C@H](O)[C@H]3O)[C@H](O)[C@@H](O)[C@@H]2O)c1OC [UM1018]	1.3	333	3.5	37
COc1cc(Br)c(CC(=O)OC[C@H]2O[C@H](O[C@H]3O[C@H](COC(=O)Cc4cc(OC)c(OC)cc4Br)[C@@H](O)[C@H](O)[C@H]3O)[C@H](O)[C@@H](O)[C@@H]2O)cc1OC [UM1082]	0.5	100	1.7	33
O=C(OC[C@H]1O[C@H](O[C@H]2O[C@H](COC(=O)c3ccc(-c4ccccc4)cc3O)[C@@H](O)[C@H](O)[C@H]2O)[C@H](O)[C@@H](O)[C@@H]1O)c1ccc(-c2ccccc2)cc1O [UM1062]	3	100	3	100
CC(C)(C)c1cc(CCC(=O)OC[C@H]2O[C@H](O[C@H]3O[C@H](COC(=O)CCc4cc(C(C)(C)C)c(O)c(C(C)(C)C)c4)[C@@H](O)[C@H](O)[C@H]3O)[C@H](O)[C@@H](O)[C@@H]2O)cc(C(C)(C)C)c1O [UM1086]	3	33.3	3	0.13
O=C(OC[C@H]1O[C@H](O[C@H]2O[C@H](COC(=O)c3ccccc3C(F)(F)F)[C@@H](O)[C@H](O)[C@H]2O)[C@H](O)[C@@H](O)[C@@H]1O)c1ccccc1C(F)(F)F [UM1042]	2	50	0.9	11
CCCCCOc1cc(OCCCCC)cc(C(=O)OC[C@H]2O[C@H](O[C@H]3O[C@H](COC(=O)c4cc(OCCCCC)cc(OCCCCC)c4)[C@@H](O)[C@H](O)[C@H]3O)[C@H](O)[C@@H](O)[C@@H]2O)c1 [UM1052]	3.3	0.08	1.3	0.13
CC(C)(C)c1cc(C(=O)OC[C@H]2O[C@H](O[C@H]3O[C@H](COC(=O)c4cc(C(C)(C)C)cc(C(C)(C)C)c4)[C@@H](O)[C@H](O)[C@H]3O)[C@H](O)[C@@H](O)[C@@H]2O)cc(C(C)(C)C)c1 [UM1047]	1	11	0.9	1.2

Source: US12319709B2, “Diaryl trehalose compounds and uses thereof” (THE UNIVERSITY OF MONTANA, priority 2018, dated 2025)
